Test results reported in publication PMC10254852, “Design, Synthesis and Anticancer Evaluation of Nitroimidazole Radiosensitisers” (Molecules, 2023).
Where two headings read alike, the source gives them in different places.

Assays:
FaDu cells = assay: In vitro cytotoxicity, 4 h exposure oxic/anoxic, 5-day regrowth, sulforhodamine B; type: cell-based; details: for IC50: Homo sapiens, 4 h exposure, mean ± SEM
[1] = Plasma pharmacokinetics after single i.v. dose; type: in vivo; details: female, mouse, iv, NIH-III mice, 2.2 mmol/kg i.v.
Protocol: (§1) Specific pathogen-free six- to eight-week-old female NIH-III mice, bred in the Vernon Jansen Unit, University of Auckland, were used for animal experiments. Animals had ad libitum access to food and water and were maintained in microisolator cages on a 12 h light/dark cycle. All treatments were administered by i.v. injection at a dose of 2.2 mmol/kg and injection volume of 10 mL/kg. Compounds 2, 34 and 38 were administered as solutions in saline containing 1% DMSO or for 9–12 as solutions in saline containing 2 molar equivalents of NaHCO3. Control animals received an i.v. injection of saline at 10 mL/kg. All animal experiments were conducted under the auspices of the University of Auckland Animal Ethics Committee (approval 1781).
Female NIH-III mice were injected with a single i.v. dose of 34 at its MAD of 2.2 mmol/kg in saline. Blood was collected by cardiac puncture under terminal CO2 anaesthesia at 5, 10, 30, 60 and 120 min after dosing. Blood was immediately centrifuged (3000× g, 3 min), and plasma was stored at −80 °C for HPLC. Tumour samples were prepared and analysed by HPLC using standard protocols established in our laboratory.

[2] = tested on: HCT116/54C tumour xenografts; assay: Tumour growth inhibition in combination with radiation; type: in vivo, NIH-III mice; details: HCT116/54C tumours
Protocol: as §1
(§2) Compounds were evaluated for their ability to inhibit tumour growth in combination with a single dose of radiation (10 Gy) in HCT116/54C or UT-SCC-74B tumour xenografts on the backs of NIH-III mice. In addition, a fractionated radiation schedule (5 Gy on Days 1, 7 and 14) was explored in HCT116/54C tumour xenografts. Mice were randomly assigned to 4 treatment groups and treated with: (A) vehicle control, (B) 10 Gy RAD only, (C) sensitiser only, or (D) sensitiser given 10 min before 10 Gy RAD. Drugs were administered by i.v. injection at 2.2 mmol/kg either as a single dose or three doses on Days 1, 7 and 14 in the fractionated study. Treatment commenced when the average tumour size reached approximately 250 mm^3, and tumour size was measured until study endpoint. Mice were placed in a custom-built lead-shielded jig that allowed irradiation of the whole tumour but shielded the mouse from radiation. Survival analysis represented the time taken for tumours to increase in relative tumour volume by 4× from the start of treatment (RTV^4). The significance of differences in activity between the groups was assessed by log-rank with Holm–Sidak multiple comparison analysis.

[3] = tested on: UT-SCC-74B tumour xenografts; assay: as above; type: in vivo, NIH-III mice; details: UT-SCC-74B tumours, single dose 2.2 mmol/kg i.v.
Protocol: as §1, §2

HCT116/54C cells = assay: In vitro radiosensitisation under anoxia, clonogenic survival; type: cell-based, human; details: compound 1 mM, radiation dose for 1% survival/radiation dose for 1% survival with compound, mean ± SEM
[4] = Tolerability at maximum achievable dose, i.v.; type: in vivo; details: i.v. injection, NIH-III mice
Source text: The most promising 2-nitroimidazole 34 and 5-nitroimidazole 38 compounds were selected for in vivo evaluation on the basis of solubility, in vitro cytotoxicity and radiosensitisation data. These compounds were both well tolerated by i.v. injection in NIH-III mice at their maximum achievable dose (MAD) of 2.2 mmol/kg. This MAD was also achieved for some of our earlier compounds, but only when we employed a phosphate prodrug strategy owing to their poor solubility. […] The Cmax and AUC exceeded that achieved for earlier phosphate prodrugs 9–12, but was less than 2. On this basis we advanced both morpholine analogues into in vivo radiosensitisation studies.
as §1

O=[N+]([O-])c1nccn1CS(=O)(=O)NCCN1CCOCC1 [Compound 34]
IC50 (FaDu cells; anoxic, n = 3–4, read-out: IC50 Anoxic): 0.16 ± 0.01 mM
IC50 (FaDu cells; oxic, n = 3–4, read-out: IC50 Oxic): 3.7 ± 0.1 mM
HCR (FaDu cells; IC50(oxic)/IC50(anoxic)): 23.3
AUC [1]: 960 µM·h
Cmax [1]: 1530 µM
half-life [1]: 91.2 min
survival (time to RTV^4) vs radiation alone ([2]; fractionated radiation, p < 0.05): significantly increased survival compared to radiation alone
tumour growth delay with fractionated radiation ([2]; qw × 3, 5 Gy, 2.2 mmol/kg i.v.): delayed tumour growth relative to radiation alone
tumour growth inhibition with single dose 10 Gy radiation ([2]; single dose 2.2 mmol/kg i.v.): able to sensitise 10 Gy radiation to a similar level observed with 2
tumour growth inhibition with single dose 10 Gy radiation [3]: able to sensitise 10 Gy radiation to a similar level observed with 2
SER at 1 mM (HCT116/54C cells): 1.92 ± 0.01
maximum achievable dose (MAD), well tolerated [4]: 2.2 mmol/kg
